Measurements as given in patent US4012576A, “Antibiotic complex Bu 2183” (priority 1975, dated 1977).
Values after ≈ are worked out from the molar mass of the structure shown. Like-named read-outs stand apart in the source and are kept apart here.

Legend:
E. coli JR 35/C600 = assay: MIC, two-fold agar dilution on Nutrient Agar; format: cell-based
Protocol: (§1) The minimum inhibitory concentrations (MIC) of Bu-2183 A and B were determined against a wide variety of bacteria by the two-fold agar dilution method on Nutrient Agar plates. The inocula-replicating device of Steers et al. was used. Inoculum size was adjusted to be 10^4 dilution of overnight culture of the test organisms in Heart Infusion Broth (Difco). The results are shown in Table 6 along with those of kanamycin which was comparatively tested as a reference antibiotic.

Ent. cloacae A21006 = assay: MIC, two-fold agar dilution on Nutrient Agar; format: cell-based
Protocol: as §1

S. aureus D137 = assay: MIC, two-fold agar dilution on Nutrient Agar; format: cell-based; conditions: Staphylococcus aureus, read-out: MIC
Protocol: as §1

E. coli ML 1630 = assay: MIC, two-fold agar dilution on Nutrient Agar; format: cell-based; conditions: Escherichia coli, read-out: MIC
Protocol: as §1

Pseudomonas sp. A20621 = assay: MIC, two-fold agar dilution on Nutrient Agar; format: cell-based
Protocol: as §1

Ent. cloacae A20364 = assay: MIC, two-fold agar dilution on Nutrient Agar; format: cell-based
Protocol: as §1

S. aureus Smith [1] = assay: MIC, two-fold agar dilution on Nutrient Agar; format: cell-based; conditions: Staphylococcus aureus, read-out: MIC
Protocol: as §1

E. coli JR 66/W677 = assay: MIC, two-fold agar dilution on Nutrient Agar; format: cell-based; conditions: Escherichia coli
Protocol: as §1

Ps. aeruginosa A20653 = assay: MIC, two-fold agar dilution on Nutrient Agar; format: cell-based; conditions: Pseudomonas aeruginosa, read-out: MIC
Protocol: as §1

K. pneumoniae D11 = assay: MIC, two-fold agar dilution on Nutrient Agar; format: cell-based; conditions: Klebsiella pneumoniae, read-out: MIC
Protocol: as §1

Pr. morganii A20031 = assay: MIC, two-fold agar dilution on Nutrient Agar; format: cell-based
Protocol: as §1

E. coli A20732 = assay: MIC, two-fold agar dilution on Nutrient Agar; format: cell-based
Protocol: as §1

E. coli NR 79/W677 = assay: MIC, two-fold agar dilution on Nutrient Agar; format: cell-based; conditions: Escherichia coli
Protocol: as §1

Ps. aeruginosa A20601 = assay: MIC, two-fold agar dilution on Nutrient Agar; format: cell-based; conditions: Pseudomonas aeruginosa, read-out: MIC
Protocol: as §1

Ps. aeruginosa A9930 [2] = assay: MIC, two-fold agar dilution on Nutrient Agar; format: cell-based
Protocol: as §1

E. coli A20895 = assay: MIC, two-fold agar dilution on Nutrient Agar; format: cell-based; conditions: Escherichia coli, read-out: MIC
Protocol: as §1

Pr. mirabilis A9554 = assay: MIC, two-fold agar dilution on Nutrient Agar; format: cell-based; conditions: Proteus mirabilis, read-out: MIC
Protocol: as §1

Ser. marcescens A21247 = assay: MIC, two-fold agar dilution on Nutrient Agar; format: cell-based; conditions: Serratia marcescens, read-out: MIC
Protocol: as §1

Solubility = format: physicochemical; conditions: base
[3] = system: Gram-positive and Gram-negative bacteria; assay: In vitro antibacterial activity (general); format: cell-based; conditions: for antibacterial spectrum: in vitro
Protocol: as §1

in vivo = conditions: for no death at doses up to: 21600 min
Protocol: The acute toxicity of Bu-2183 A and B was determined in mice by the subcutaneous and intravenous routes.

[4] = system: S. aureus Smith, E. coli NIHJ and Ps. aeruginosa A9930; assay: Experimental infections of mice (all three pathogens); format: in vivo; conditions: subcutaneous
Protocol: (§2) Bu-2183 A and B were evaluated in vivo in experimental infections of mice. The pathogenic bacteria employed were S. aureus Smith, E. coli NIHJ and Ps. aeruginosa A9930. Mice were challenged with a 100 × LD50 dose of the pathogens in a 5% suspension of hog gastric mucin. A single subcutaneous treatment with the antibiotic was made immediately after the bacterial challenge (0 hour), and in a double dose schedule the antibiotic was administered at 0 and 3 hours after the challenge.

S. aureus Smith [5] = assay: Experimental infection of mice, median protective dose; format: in vivo; conditions: Staphylococcus aureus, sc, 120 h
Protocol: as §2

E. coli NIHJ = assay: as above; format: in vivo; conditions: Escherichia coli, sc, 120 h
Protocol: as §2

Ps. aeruginosa A9930 [6] = assay: as above; format: in vivo; conditions: Pseudomonas aeruginosa, A9930, sc, 120 h
Protocol: as §2

eight test organisms = assay: Effect of media on activity (overall); format: cell-based; conditions: pH 8; Nutrient Agar, Heart Infusion Agar, Mueller-Hinton Agar
Protocol: The effect of media on the activity of Bu-2183 A and B was determined against eight test organisms. The media tested were Nutrient Agar, Heart Infusion Agar and Mueller-Hinton Agar. The media pH was adjusted at pH 8.

Titration in water = format: physicochemical
[7] = Enterobacter cloacae, A21006, Table 6, El-12, read-out: MIC
[8] = Pseudomonas, SP.A20621, Table 6, Px-10, read-out: MIC
[9] = Enterobacter cloacae, A20364, Table 6, El-2, read-out: MIC
[10] = Morganella morganii, A20031, Table 6, Pg-2, read-out: MIC
[11] = Escherichia coli, A20732, Table 6, Ec-72, read-out: MIC
[12] = Pseudomonas aeruginosa, A9930, Table 6, Pa-3, read-out: MIC
[13] = double dose at 0 and 3 hours after challenge, read-out: PD50 (double doses)
[14] = subcutaneous, single dose at 0 hour, 100 × LD50 challenge, read-out: PD50 (single dose)

## CCC(=O)NC1C(CO)OC(OC(C(O)CN)C(N)C(O)CO)C(O)C1O (centres unmarked) [Bu-2183 A]
E. coli JR 35/C600; Escherichia coli, JR35/C600
  MIC: 6.3 µg/mL (≈ 15.9 µM)
E. coli JR 35/C600; Table 7, Ec-10
  MIC: 6.3 µg/mL (≈ 15.9 µM)
Ent. cloacae A21006; [7]
  MIC: 25 µg/mL (≈ 62.9 µM)
Ent. cloacae A21006; Table 7, El-12
  MIC: 25 µg/mL (≈ 62.9 µM)
S. aureus D137; D137, Table 6, Sa-9
  MIC: 100 µg/mL (≈ 252 µM)
S. aureus D137; D137, Table 7, Sa-9
  MIC: 50 µg/mL (≈ 126 µM)
E. coli ML 1630; ML1630, Table 6, Ec-5
  MIC: 12.5 µg/mL (≈ 31.5 µM)
E. coli ML 1630; ML1630, Table 7, Ec-5
  MIC: 25 µg/mL (≈ 62.9 µM)
Pseudomonas sp. A20621; [8]
  MIC: > 100 µg/mL
Pseudomonas sp. A20621; Table 7, Px-10
  MIC: > 100 µg/mL
Ent. cloacae A20364; [9]
  MIC: 25 µg/mL (≈ 62.9 µM)
Ent. cloacae A20364; Table 7, El-2
  MIC: 25 µg/mL (≈ 62.9 µM)
S. aureus Smith [1]; Table 6, Sa-2
  MIC: 12.5 µg/mL (≈ 31.5 µM)
S. aureus Smith [1]; Table 7, Sa-2
  MIC: 25 µg/mL (≈ 62.9 µM)
E. coli JR 66/W677; JR66/W677, Table 6, Ec-53
  MIC: 6.3 µg/mL (≈ 15.9 µM)
E. coli JR 66/W677; JR66/W677, Table 7, Ec-53
  MIC: 25 µg/mL (≈ 62.9 µM)
Ps. aeruginosa A20653; A20653, Table 6, Pa-12
  MIC: 25 µg/mL (≈ 62.9 µM)
Ps. aeruginosa A20653; A20653, Table 7, Pa-12
  MIC: 50 µg/mL (≈ 126 µM)
K. pneumoniae D11; D11, Table 6, Kp-1
  MIC: 3.1 µg/mL (≈ 7.8 µM)
K. pneumoniae D11; D11, Table 7, Kp-1
  MIC: 6.3 µg/mL (≈ 15.9 µM)
Pr. morganii A20031; [10]
  MIC: 25 µg/mL (≈ 62.9 µM)
Pr. morganii A20031; Table 7, Pg-2
  MIC: 25 µg/mL (≈ 62.9 µM)
E. coli A20732; [11]
  MIC: 12.5 µg/mL (≈ 31.5 µM)
E. coli A20732; Table 7, Ec-72
  MIC: 12.5 µg/mL (≈ 31.5 µM)
E. coli NR 79/W677; NR79/W677, Table 6, Ec-9
  MIC: 25 µg/mL (≈ 62.9 µM)
E. coli NR 79/W677; NR79/W677, Table 7, Ec-9
  MIC: 12.5 µg/mL (≈ 31.5 µM)
Ps. aeruginosa A20601; A20601, Table 6, Pa-21
  MIC: 25 µg/mL (≈ 62.9 µM)
Ps. aeruginosa A20601; A20601, Table 7, Pa-21
  MIC: 50 µg/mL (≈ 126 µM)
Ps. aeruginosa A9930 [2]; [12]
  MIC: 12.5 µg/mL (≈ 31.5 µM)
Ps. aeruginosa A9930 [2]; Table 7, Pa-3
  MIC: 12.5 µg/mL (≈ 31.5 µM)
E. coli A20895; A20895, Table 6, Ec-62
  MIC: 12.5 µg/mL (≈ 31.5 µM)
E. coli A20895; A20895, Table 7, Ec-62
  MIC: 25 µg/mL (≈ 62.9 µM)
Pr. mirabilis A9554; A9554, Table 6, Pm-1
  MIC: 12.5 µg/mL (≈ 31.5 µM)
Pr. mirabilis A9554; A9554, Table 7, Pm-1
  MIC: 25 µg/mL (≈ 62.9 µM)
Ser. marcescens A21247; A21247, Table 6, Sm-16
  MIC: 100 µg/mL (≈ 252 µM)
Ser. marcescens A21247; A21247, Table 7, Sm-16
  MIC: > 100 µg/mL
Solubility
  solubility in methanol and ethanol: slightly soluble
  solubility in n-butanol, acetone and other common organic solvents: practically insoluble
  solubility in water: soluble
[3]
  bio-activity: bio-active
  intrinsic activity in terms of MIC values: moderate or rather weak
  antibacterial spectrum: broad spectrum of antibacterial activity against Gram-positive and Gram-negative bacteria including many of the aminoglycoside-resistant organisms and Pseudomonas strains
[3]; MIC, Table 6
  activity of component A relative to B: 2-4 fold
In vivo; mouse, in vivo, iv
  LD50: 2500 mg/kg
In vivo; mouse, in vivo, sc
  LD50 at 360 h: 1000 mg/kg
[4]
  in vivo activity: afforded in vivo activity against all three of the infections tested
S. aureus Smith [5]; [13]
  ED50: 36 mg/kg
S. aureus Smith [5]; [14]
  ED50: 42 mg/kg
E. coli NIHJ; [13]
  ED50: 45 mg/kg
E. coli NIHJ; [14]
  ED50: 92 mg/kg
Ps. aeruginosa A9930 [6]; [13]
  ED50: 80 mg/kg
Ps. aeruginosa A9930 [6]; [14]
  ED50: 230 mg/kg
Eight test organisms
  medium of greatest in vitro activity: the greatest in vitro activity was demonstrated when Nutrient Agar was used
Titration in water; read-out: pKa' (first value)
  pKa: 6.9
Titration in water; read-out: pKa' (second value)
  pKa: 9.4

## CC(=O)NC1C(CO)OC(OC(C(O)CN)C(N)C(O)CO)C(O)C1O (centres unmarked) [Bu-2183 B]
E. coli JR 35/C600; Escherichia coli, JR35/C600
  MIC: 12.5 µg/mL (≈ 32.6 µM)
Ent. cloacae A21006; [7]
  MIC: 100 µg/mL (≈ 261 µM)
S. aureus D137; D137, Table 6, Sa-9
  MIC: > 100 µg/mL
E. coli ML 1630; ML1630, Table 6, Ec-5
  MIC: 50 µg/mL (≈ 130 µM)
Pseudomonas sp. A20621; [8]
  MIC: > 100 µg/mL
Ent. cloacae A20364; [9]
  MIC: 50 µg/mL (≈ 130 µM)
S. aureus Smith [1]; Table 6, Sa-2
  MIC: 50 µg/mL (≈ 130 µM)
E. coli JR 66/W677; JR66/W677, Table 6, Ec-53
  MIC: 25 µg/mL (≈ 65.2 µM)
Ps. aeruginosa A20653; A20653, Table 6, Pa-12
  MIC: 100 µg/mL (≈ 261 µM)
K. pneumoniae D11; D11, Table 6, Kp-1
  MIC: 12.5 µg/mL (≈ 32.6 µM)
Pr. morganii A20031; [10]
  MIC: 50 µg/mL (≈ 130 µM)
E. coli A20732; [11]
  MIC: 25 µg/mL (≈ 65.2 µM)
E. coli NR 79/W677; NR79/W677, Table 6, Ec-9
  MIC: 100 µg/mL (≈ 261 µM)
Ps. aeruginosa A20601; A20601, Table 6, Pa-21
  MIC: 50 µg/mL (≈ 130 µM)
Ps. aeruginosa A9930 [2]; [12]
  MIC: 25 µg/mL (≈ 65.2 µM)
E. coli A20895; A20895, Table 6, Ec-62
  MIC: 50 µg/mL (≈ 130 µM)
Pr. mirabilis A9554; A9554, Table 6, Pm-1
  MIC: 25 µg/mL (≈ 65.2 µM)
Ser. marcescens A21247; A21247, Table 6, Sm-16
  MIC: > 100 µg/mL
Solubility
  solubility in methanol and ethanol: slightly soluble
  solubility in n-butanol, acetone and other common organic solvents: practically insoluble
  solubility in water: soluble
[3]
  bio-activity: bio-active
  intrinsic activity in terms of MIC values: moderate or rather weak
[3]; listed as B
  antibacterial spectrum: broad spectrum of antibacterial activity against Gram-positive and Gram-negative bacteria including many of the aminoglycoside-resistant organisms and Pseudomonas strains
In vivo; mice, i.v. and s.c.
  acute toxicity compared with Bu-2183 A: much less toxic than Bu-2183 A
In vivo; mouse, in vivo, iv
  no death at doses up to: ≥ 2000 mg/kg
In vivo; mouse, in vivo, sc
  no death at doses up to: ≥ 2000 mg/kg
[4]
  in vivo activity: afforded in vivo activity against all three of the infections tested
S. aureus Smith [5]; [14]
  ED50: 100 mg/kg
E. coli NIHJ; [14]
  ED50: 135 mg/kg
Ps. aeruginosa A9930 [6]; [14]
  ED50: 540 mg/kg
Eight test organisms
  medium of greatest in vitro activity: the greatest in vitro activity was demonstrated when Nutrient Agar was used
Titration in water; read-out: pKa' (first value)
  pKa: 7.15
Titration in water; read-out: pKa' (second value)
  pKa: 9.35
